Laboratory results from patent US5948780A, “Method for treating and preventing heart failure and ventricular dilatation” (priority 1997, dated 1999).

Legend:
[1] = test system: pacing-induced heart failure model; test: pacing-induced heart failure in pigs, first study (echocardiography); assay type: in vivo, pig
Experimental: A study was performed in four pigs in which atrial pacemakers were implanted. Heart failure was induced by chronic rapid pacing (i.e., increasing heart rate to 240 beats per minute). Echocardiographic assessment of cardiac function, chamber dimensions, and structure was performed prior to the initiation of pacing, and following 1 and 3 weeks of rapid pacing. Previous studies have shown that 1 week of rapid atrial pacing represents an early timepoint in the development of heart failure in which cardiac dilation is evident, but there is no significant effect on left ventricular (LV) systolic function. Two pigs were dosed with the MMP-inhibitor 2-(4'-bromobiphenyl-4-sulfonylamino)-3-methylbutyric acid (Compound A) (20 mg/kg/day) which was given once a day orally. This dosage was selected based upon pharmacokinetic data in which this dosage regimen would provide minimal steady state plasma levels of 10 μM Compound A. One pig dosed with Compound A was sacrificed at the end of 1 week of pacing, and the second pig was paced for a full 3 weeks. At the end of 3 weeks, pigs were euthanized and the heart removed. Cardiac myocytes were isolated from a portion of the left ventricle to measure changes in cell length.
(§1) MMP-Inhibitor efficacy in treating heart failure was defined as stopping cardiac dilation, preserving cardiac function, and reducing cardiac myocyte lengthening. Cardiac dilation was assessed by measuring changes in the end-diastolic dimension between the left ventricular free wall and left ventricular septum. Cardiac function was also measured using m-mode echocardiography by calculating the percent fraction shortening, or in other words, how well the left ventricle of the heart pumped blood into the circulation. Cellular remodelling was measured by isolating cardiac myocytes using a standard collagenase digestion procedure and measuring cell length using digital photomicroscopy. To confirm plasma drug levels of the MMP-inhibitor, plasma was collected prior to dosing on each day of the pacing protocol.

MMPs = test: MMP inhibition at trough plasma level in pigs; conditions: 20 mg/kg/day oral
in vivo = test: in vivo; set-up: species or system Yorkshire pigs; conditions: pig, po, 10 mg/kg
Experimental: In a similar study, three Yorkshire pigs (22-25 kg, male, Hambone Farms, S.C.) were chronically instrumented in order to measure arterial blood pressure in the conscious state. The pigs were anesthetized with isoflurane (3%/1.5 L/min) and a mixture of nitrous oxide and oxygen (50:50), intubated with a cuffed endotracheal tube and ventilated at a flow rate of 22 mL/kg/minute, and a respiratory rate of 15/minute. A left thoracotomy was performed, and the thoracic aorta at the location of the hemi-azygous crossover exposed. A catheter connected to a vascular process port (Model GPV, 9F, Access Technologies, Skokie, Ill.) was placed in the aorta and sutured in place. The access port was buried in a subcutaneous pocket over the thoracolumbar fascia. Following a recovery period of 7 to 10 days, the animal was returned to the laboratory for baseline studies. […] The vascular access port was entered using a 12-gauge Huber needle (Access Technologies, Skokie, Ill.) and basal, resting arterial pressure and heart rate were recorded. […]
The MMP inhibitor chosen for these studies was Compound A as above. […] Plasma levels of the MMP inhibitor were determined by the degree of hydrolysis of the MMP substrate thiopeptolide Ac-Pro-Leu-Gly-thioester-Leu-Leu-Gly=OEt. […]

gelatinases = test: plasma MMP inhibitory activity (thiopeptolide hydrolysis), gelatinases; assay type: biochemical; conditions: plasma after 10 mg/kg oral administration
Experimental: The MMP inhibitor chosen for these studies was Compound A as above. A single oral dose of 10 mg/kg of Compound A was administered in one pig, and a second pig was simultaneously administered a single 10 mg/kg dose of the MMP inhibitor intravenously. Plasma samples were serially collected from the chronically placed arterial access ports. Plasma levels of the MMP inhibitor were determined by the degree of hydrolysis of the MMP substrate thiopeptolide Ac-Pro-Leu-Gly-thioester-Leu-Leu-Gly=OEt. […] A pharmacokinetic profile was constructed using these initial data, and it was predicted that an oral delivery of 20 mg/kg/day of Compound A would provide significant MMP plasma inhibitory activity at trough levels. Accordingly, the 3 pigs underwent 20 mg/kg QD-AM of treatment with Compound A for 5 days. In order to confirm adequate MMP inhibitory activity, plasma was collected prior to the AM dose with each day of treatment. […] Thus, a practical dosing regiment of Compound A was established which provided stable plasma MMP inhibitory activity in the animal model to be used in the present study.

cardiac myocytes = test: cardiac myocyte length after pacing, first study; assay type: in vivo, pig
Experimental: A study was performed in four pigs in which atrial pacemakers were implanted. Heart failure was induced by chronic rapid pacing (i.e., increasing heart rate to 240 beats per minute). Echocardiographic assessment of cardiac function, chamber dimensions, and structure was performed prior to the initiation of pacing, and following 1 and 3 weeks of rapid pacing. Previous studies have shown that 1 week of rapid atrial pacing represents an early timepoint in the development of heart failure in which cardiac dilation is evident, but there is no significant effect on left ventricular (LV) systolic function. […]
as §1, with “To confirm plasma drug levels of the MMP-inhibitor, plasma was collected prior to dosing on each day of the pacing protocol.” left out

[2] = 20 mg/kg/day oral, paced 7 days
[3] = 20 mg/kg/day oral, paced 21 days
[4] = Paced + Compound A group, baseline

**Q.** What does the source list for `CC(C)C(NS(=O)(=O)c1ccc(-c2ccc(Br)cc2)cc1)C(=O)O` (centres unmarked) [Compound A, 2-(4'-bromobiphenyl-4-sulfonylamino)-3-methylbutyric acid]?
**A.** End-Diastolic Dimension [1, 2]: 3.6 ± 0.2 cm; Fractional Shortening [1, 2]: 33 ± 3%; Heart Rate [1, 2]: 120 ± 3 BPM; LV Stress [1, 2]: 50 ± 4 g/cm2; End-Diastolic Dimension [1, 3]: 4.3 cm; Fractional Shortening [1, 3]: 22%; decrease in cardiac function (fractional shortening) ([1]; 3 weeks of pacing): 39%; increase in cardiac dilation (left ventricular end-diastolic dimension) ([1]; 3 weeks of pacing): 26%; End-Diastolic Dimension [1, 4]: 3.4 ± 0.2 cm; Fractional Shortening [1, 4]: 36 ± 3%; Heart Rate [1, 4]: 105 ± 4 BPM; LV Stress [1, 4]: 46 ± 3 g/cm2; left ventricular end-diastolic volume versus control values ([1]; first week of pacing): remained unchanged from control values; left ventricular wall stress versus control values ([1]; first week of pacing): remained unchanged from control values; fractional shortening, change ([1]; following 1 week of pacing): unchanged; inhibition of MMPs at trough level (MMPs): a level great enough to inhibit all MMPs tested; bioavailability at 4 h (in vivo): ~100%; reduction in activity against the gelatinases (gelatinases): ~50%; Cardiac Myocyte Length (cardiac myocytes; [3]): 170 μms; increase in cardiac myocyte cell length (cardiac myocytes; 3 weeks of pacing): 19%
